Data from patent US20220315574A1, “Beta-Arrestin-Modulating Compounds and Methods of Using Same” (Duke University, priority 2019, published 2022).
Structures can show the parent of a compound that is named as a salt.

Assays:
βarr2 [1] = molecular target: T1, βarr2 (Rattus norvegicus, UniProt P29067); test: Dynamic light scattering (DLS) of βarr2; design: final βarr2 (truncated βarr2 at 394) concentration of ˜1 mg/mL; made in house; settings: control βarr2 7.1 nm; Cmpd-30 60 μM
Experimental: DLS was performed on a Zetasizer Nano ZS instrument (Malvern Instruments, UK) at an excitation He—Ne laser source of 633 nm and a detector at a scattering angle of 173°. The measurements were obtained at 25° C. and defined time intervals. A low volume (100 μl) disposable sample cuvette was used (BRAND, Wertheim, Germany). The protein solutions used for all particle size measurements were at a final βarr2 (truncated βarr2 at 394) concentration of ˜1 mg/mL (20 μM) in a buffer consisting of […] (pH 7.4) and 150 mM NaCl in presence of Cmpd-30 (60 μM), IP6 (300 uM) or vehicle (DMSO). Size distributions of scattering particles of different βarr2 sample were obtained after data analysis performed on intensity and volume size distribution curves and the molecular mass and Z-average size calculated using Malvern DTS software.

wild-type mouse T cells = type: cell-based; settings: total T cells and CD4/CD8 subpopulations
Experimental: Chemotaxis assays were conducted similarly to those previously described Smith, J. S. et al. C-X-C Motif Chemokine Receptor 3 Splice Variants Differentially Activate Beta-Arrestins to Regulate Downstream Signaling Pathways. Mol Pharmacol 92, 136-150, doi:10.1124/mol.117.108522 (2017)). Briefly, mouse leukocytes, obtained by passing cells isolated from the spleen and subjected to erythrocyte lysis through a 70-μm filter, were suspended in RPMI 1640 medium containing 5% FBS. For the assay, 1×10^6 cells in 100 μl of medium were added to the top chamber of a 6.5 mm diameter, 5-μm pore polycarbonate Transwell insert (Costar). Subsequently, cells were treated with βarr small-molecule modulators or vehicle for 30 min, followed by increasing concentrations of CCL19 suspended in 600 μL of the medium in the bottom chamber for 2 hours at 37° C. T cells migrated to the bottom of chamber were recovered, resuspended, washed, stained with a Live/Dead marker (Aqua Dead, ThermoFisher) and antibodies to cell surface markers (CD3, CD4, CD8, and CD45), and fixed with paraformaldehyde. The number of migrated T cells was measured by flow cytometric analysis with a BD LSRII Flow cytometer. […] A 1:10 dilution of input cells was similarly analyzed. Specific T cell migration was calculated by dividing the number of migrated cells by the number of input cells.

βarr2 [2] = molecular target: T1, βarr2; test: Negative-stain electron microscopy, 2D class averages of βarr2; design: final βarr2 (truncated βarr2 at 394) concentration of ˜1 mg/mL; made in house
Experimental: To prepare for EM visualization of the architecture and structural organization of βarr2-Cmpd30 complexes, purified βarr2 (394) was diluted to 0.5 μM and incubated with 5 μM Cmpd-30 or vehicle (DMSO) in HN buffer (20 mM HEPES pH 7.4 and 150 mM NaCl) for 7 min at room temperature followed by dilution 10× into HN buffer containing 1 μM Cmpd-30, before negative staining. The positive control, βarr2 bound to IP6 sample was prepared similarly (5 μM and 250 μM, respectively) and was diluted 100× into HN buffer containing 10 μM IP6. Grids were prepared using conventional negative-staining protocols as described previously (Peisley, A. & Skiniotis, G. 2D Projection Analysis of GPCR Complexes by Negative Stain Electron Microscopy. Methods Mol Biol 1335, 29-38, doi:10.1007/978-1-4939-2914-6_3 (2015). Briefly, 3 μL of samples were applied onto a glow-discharged EM carbon-coated copper grid, adsorbed on the grid surface, blotted, stained, and air dried before imaging. EM grids were examined with a FEI Tecnai G2 Twin electron microscope and operated at an acceleration voltage of 120 kV. Images were recorded with an Eagle 2K CCD camera at a magnification of ×65,200 and a defocus value of ˜1.5 μm. Two-dimensional EM reference-free alignment and classification of particle projections were performed with the iterative stable alignment and clustering procedure (ISAC)(Yang, Z., et al., Iterative stable alignment and clustering of 2D transmission electron microscope images. Structure 20, 237-247, doi:10.1016/j.str.2011.12.007 (2012)). EM single particles were both automatically and manually selected using Boxer (part of the EMAN 2.1 software suite)(Tang, G. et EMAN2: an extensible image processing suite for electron microscopy. J Struct Biol 157, 38-46, doi:10.1016/j.jsb.2006.05.009 (2007)). A total of ˜250,000 0° particles projections were picked representing all the three βarr2 samples (with vehicle, Cmpd-30 or IP6) and windowed into 96×96-pixel images (with the RELION 2.1-beta-1 software package) and subjected to ISAC. […]

T1 sequence (P29067 1-394): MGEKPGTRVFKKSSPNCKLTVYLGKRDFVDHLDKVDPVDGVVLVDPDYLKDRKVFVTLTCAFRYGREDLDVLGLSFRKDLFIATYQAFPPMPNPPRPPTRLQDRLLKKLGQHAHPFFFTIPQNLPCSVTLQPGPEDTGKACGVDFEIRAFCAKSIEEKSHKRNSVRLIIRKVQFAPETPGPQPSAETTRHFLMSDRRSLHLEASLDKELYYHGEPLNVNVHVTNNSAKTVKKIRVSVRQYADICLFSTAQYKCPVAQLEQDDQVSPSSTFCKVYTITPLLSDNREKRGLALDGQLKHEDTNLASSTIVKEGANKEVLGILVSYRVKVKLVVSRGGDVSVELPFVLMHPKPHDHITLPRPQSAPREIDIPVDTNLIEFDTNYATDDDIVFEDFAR

CN(C)c1n/c(=N/Cc2ccco2)ss1 [Cmpd-30, 5-(furan-2-ylmethylimino)-N,N-dimethyl-1,2,4-dithiazol-3-amine;hydrobromide]
particle (hydrodynamic) diameter of βarr2 (βarr2 [1]): 8.2 nm
CCL19-induced chemotaxis of T cells (wild-type mouse T cells): significantly impair
particle average width of βarr2 class averages (βarr2 [2]; control βarr2 ~72 Å): 80-90 Å
class averages represented as homo-oligomers (dimers/trimers) (βarr2 [2]; control βarr 97% monomeric): 95%
